From the NIST ThermoML archive (doi:10.1021/acs.jced.5b00251)

Assay: refractive index (other wavelength) (dimensionless); xn = mol fraction of the nth substance listed
Conditions: 101 kPa, Liquid, Standard Abbe refractometry

CC(C)Cc1ccccc1 [(2-methylpropyl)benzene] + CCCCCCCCCCCC
refractive index
Conditions	x1 = 0.1014	x1 = 0.2024	x1 = 0.3032	x1 = 0.4036	x1 = 0.5038	x1 = 0.6036	x1 = 0.7032	x1 = 0.8024	x1 = 0.9014
293.15 K, Wavelength=436.1 nm	1.43714	1.44344	1.45015	1.45682	1.46405	1.47144	1.47917	1.48711	1.49556
293.15 K, Wavelength=513.9 nm	1.4307	1.4365	1.44273	1.44889	1.45559	1.46247	1.46959	1.47693	1.48487
293.15 K, Wavelength=589.3 nm	1.42708	1.4326	1.43856	1.44443	1.45083	1.45746	1.46421	1.47122	1.47869
293.15 K, Wavelength=633.2 nm	1.42554	1.43094	1.4368	1.44255	1.44884	1.45524	1.46196	1.46884	1.47617
293.15 K, Wavelength=657.2 nm	1.42541	1.43084	1.43659	1.44269	1.44849	1.45427	1.46085	1.46776	1.47491
298.15 K, Wavelength=436.1 nm	1.43491	1.44124	1.44775	1.45454	1.46153	1.46903	1.47676	1.48462	1.49284
298.15 K, Wavelength=513.9 nm	1.42851	1.43425	1.44037	1.44665	1.45312	1.46005	1.46722	1.4745	1.48229
298.15 K, Wavelength=589.3 nm	1.4249	1.43032	1.43623	1.44221	1.44841	1.45504	1.46188	1.46882	1.47611
298.15 K, Wavelength=633.2 nm	1.42337	1.42885	1.43449	1.44035	1.44642	1.45293	1.45965	1.46646	1.47371
298.15 K, Wavelength=657.2 nm	1.42267	1.42867	1.43417	1.44009	1.44578	1.45198	1.45863	1.46548	1.47249
303.15 K, Wavelength=436.1 nm	1.43262	1.43872	1.44552	1.45204	1.45929	1.4666	1.47424	1.48209	1.49024
303.15 K, Wavelength=513.9 nm	1.42624	1.43187	1.43818	1.44421	1.45077	1.45769	1.46477	1.47203	1.47981
303.15 K, Wavelength=589.3 nm	1.42267	1.42804	1.43406	1.43981	1.44611	1.45269	1.45946	1.46639	1.47362
303.15 K, Wavelength=633.2 nm	1.42115	1.42643	1.43232	1.43796	1.44427	1.45059	1.45721	1.46405	1.47135
303.15 K, Wavelength=657.2 nm	1.42052	1.42618	1.4321	1.43801	1.44358	1.44965	1.45625	1.46299	1.47001
308.15 K, Wavelength=436.1 nm	1.43035	1.43663	1.44293	1.44977	1.45671	1.46416	1.47181	1.47955	1.48775
308.15 K, Wavelength=513.9 nm	1.42401	1.42966	1.43562	1.44199	1.44841	1.45531	1.46239	1.46958	1.47731
308.15 K, Wavelength=589.3 nm	1.42043	1.42581	1.43152	1.43762	1.44375	1.45034	1.45708	1.46398	1.47126
308.15 K, Wavelength=633.2 nm	1.41894	1.42433	1.42979	1.4358	1.44178	1.44827	1.45488	1.46165	1.46871
308.15 K, Wavelength=657.2 nm	1.41824	1.42395	1.42984	1.43554	1.44115	1.44715	1.45387	1.46065	1.46758
313.15 K, Wavelength=436.1 nm	1.42808	1.43404	1.44059	1.4473	1.45448	1.46172	1.46924	1.47706	1.48511
313.15 K, Wavelength=513.9 nm	1.42179	1.42725	1.43332	1.43955	1.44611	1.45293	1.4599	1.46712	1.47502
313.15 K, Wavelength=589.3 nm	1.41826	1.42345	1.42938	1.4352	1.44159	1.44797	1.45466	1.46154	1.46878
313.15 K, Wavelength=633.2 nm	1.41677	1.42191	1.42752	1.43336	1.43965	1.4459	1.45247	1.45924	1.46652
313.15 K, Wavelength=657.2 nm	1.41612	1.42149	1.42761	1.43304	1.43882	1.44496	1.45159	1.45817	1.46515
318.15 K, Wavelength=436.1 nm	1.42579	1.43204	1.43791	1.44498	1.4518	1.45921	1.46673	1.47452	1.48247
318.15 K, Wavelength=513.9 nm	1.41953	1.42512	1.43094	1.43729	1.44389	1.45049	1.45744	1.46465	1.47245
318.15 K, Wavelength=589.3 nm	1.41596	1.42122	1.42669	1.43297	1.43898	1.44556	1.45224	1.4591	1.46615
318.15 K, Wavelength=633.2 nm	1.41454	1.41993	1.425	1.43114	1.4371	1.44352	1.45008	1.45679	1.46372
318.15 K, Wavelength=657.2 nm	1.41386	1.41979	1.42574	1.43091	1.43665	1.44244	1.44935	1.45594	1.46262
